Data as given in ChEMBL document CHEMBL1128867, “Structure-based drug design of nonpeptidic P2 substituents for HIV-1 protease inhibitors” (Bioorg Med Chem Lett, 1995).
Converted amounts (≈) assume the structure as drawn.

What was measured:
CCRF-CEM = test: Inhibitory activity against CEM cells; type: functional, cell-based; settings: Homo sapiens
[1] = target: Human immunodeficiency virus type 1 protease (Human immunodeficiency virus 1, UniProt Q72874); test: Inhibitory activity HIV-1 protease enzyme
[2] = Oral availability was tested for plasma levels at a dose of 40 mg/kg, after 6 hr of in fed fisher rats.; type: ADME, organism-based; design: dose 40 mg/kg; settings: Fischer, rat, read-out: Oral availability
[3] = target: Human immunodeficiency virus type 1 protease (Human immunodeficiency virus 1) (UniProt Q72874); test: Concentration required for the inhibition against HIV-protease enzyme at a dose of 40 mg/kg in fed fisher rats; type: organism-based; design: dose 40 mg/kg

Structure (SMILES)	IC50 (CCRF-CEM) [µg/mL]	Ki [1] [nM]	bioavailability [2] [%]	IC90 [3] [µg/mL]
Cc1ccc(N)cc1C(=O)N[C@@H](CSc1ccc2ccccc2c1)[C@H](O)Cc1ccccc1C(=O)NC(C)(C)C	1.3 (≈ 2.34 µM)	17	–	–
CC(C)(C)NC(=O)c1ccccc1C[C@@H](O)[C@H](CSc1ccc2ccccc2c1)NC(=O)c1cccc(N)c1Br	1.6 (≈ 2.58 µM)	33	–	–
Cc1c(N)cc(N)cc1C(=O)N[C@@H](CSc1ccc2ccccc2c1)[C@H](O)Cc1ccccc1C(=O)NC(C)(C)C	0.46 (≈ 0.806 µM)	5	–	–
CC(C)(C)NC(=O)c1ccccc1C[C@@H](O)[C@H](CSc1ccc2ccccc2c1)NC(=O)c1cccc2c1CCCN2	1.9 (≈ 3.27 µM)	24	–	–
CC(C)(C)NC(=O)c1ccccc1C[C@@H](O)[C@H](CSc1ccc2ccccc2c1)NC(=O)c1cccc2ncccc12	5.7 (≈ 9.87 µM)	113	–	–
Cc1c(O)cccc1C(=O)N[C@@H](Cc1ccccc1)[C@H](O)CN1C[C@H]2CCCC[C@H]2C[C@H]1C(=O)NC(C)(C)C	0.01 (≈ 0.0187 µM)	21	44	0.03 (≈ 0.056 µM)
Cc1ccc(O)cc1C(=O)N[C@@H](CSc1ccc2ccccc2c1)[C@H](O)Cc1ccccc1C(=O)NC(C)(C)C	–	500	–	–
Cc1c(N)cccc1C(=O)N[C@@H](CSc1ccc2ccccc2c1)[C@H](O)Cc1ccccc1C(=O)NC(C)(C)C	5 (≈ 9 µM)	49	–	–
CC(C)(C)NC(=O)c1ccccc1C[C@@H](O)[C@H](CSc1ccc2ccccc2c1)NC(=O)c1cccc2c1CCN2	> 50	166	–	–
CC(C)(C)NC(=O)c1ccccc1C[C@@H](O)[C@H](CSc1ccc2ccccc2c1)NC(=O)c1cccc2cnccc12	16 (≈ 27.7 µM)	800	–	–
Cc1c(O)cccc1C(=O)N[C@@H](CSc1ccc2ccccc2c1)[C@H](O)Cc1ccccc1C(=O)NC(C)(C)C	0.97 (≈ 1.74 µM)	3	–	–
CC(C)(C)NC(=O)c1ccccc1C[C@@H](O)[C@H](CSc1ccc2ccccc2c1)NC(=O)c1cccc(O)c1Cl	–	15	–	–
Cc1c(C(=O)N[C@@H](CSc2ccc3ccccc3c2)[C@H](O)Cc2ccccc2C(=O)NC(C)(C)C)cccc1[N+](=O)[O-]	> 50	540	–	–
CC(C)(C)NC(=O)c1ccccc1C[C@@H](O)[C@H](CSc1ccc2ccccc2c1)NC(=O)c1ccnc2ccccc12	5.6 (≈ 9.69 µM)	265	–	–
CC(C)(C)NC(=O)c1ccccc1C[C@@H](O)[C@H](CSc1ccc2ccccc2c1)NC(=O)c1cccc2[nH]ccc12	6.6 (≈ 11.7 µM)	164	–	–
CC(C)(C)NC(=O)c1ccccc1C[C@@H](O)[C@H](CSc1ccc2ccccc2c1)NC(=O)c1cccc2c1CCNC2	> 50	180	–	–
CC(C)(C)NC(=O)c1ccccc1C[C@@H](O)[C@H](CSc1ccc2ccccc2c1)NC(=O)c1cccc(N)c1Cl	1.5 (≈ 2.6 µM)	16	–	–
